The target of one data set is VEGFR2 (Homo sapiens, UniProt P35968). Briefly: Kinase inhibition, Mobility Shift Assay/IMAP, VEGFR2. The data set is classed as biochemical. More on the design: purchased Carna 08-191. An excerpt: (§1) This assay directly monitored the ability of compounds to inhibit kinase phosphorylation by measuring non-phosphorylated and phosphorylated substrates in kinase reactions by using Mobility Shift Assays/IMAP™ analysis.
(§2) Read the conversion ratio data on CaliperEZ Reader II. Convert conversion rates into inhibition ratio data.
(§3) “Min” indicates the readout of the control well without the addition of enzymes; and “Max” indicates the readout of the control well with the addition of DMSO Fit IC50 values with XL Fit excel add-in version […].
(§4) X indicates the log value of compound concentration, and Y indicates the inhibition ratio (% inhibition).

The target of another data set is T1, EGFR (Homo sapiens, UniProt P00533).
T1 construct: purchased Carna 08-115
T1 sequence (P00533 669-1210 limits assumed): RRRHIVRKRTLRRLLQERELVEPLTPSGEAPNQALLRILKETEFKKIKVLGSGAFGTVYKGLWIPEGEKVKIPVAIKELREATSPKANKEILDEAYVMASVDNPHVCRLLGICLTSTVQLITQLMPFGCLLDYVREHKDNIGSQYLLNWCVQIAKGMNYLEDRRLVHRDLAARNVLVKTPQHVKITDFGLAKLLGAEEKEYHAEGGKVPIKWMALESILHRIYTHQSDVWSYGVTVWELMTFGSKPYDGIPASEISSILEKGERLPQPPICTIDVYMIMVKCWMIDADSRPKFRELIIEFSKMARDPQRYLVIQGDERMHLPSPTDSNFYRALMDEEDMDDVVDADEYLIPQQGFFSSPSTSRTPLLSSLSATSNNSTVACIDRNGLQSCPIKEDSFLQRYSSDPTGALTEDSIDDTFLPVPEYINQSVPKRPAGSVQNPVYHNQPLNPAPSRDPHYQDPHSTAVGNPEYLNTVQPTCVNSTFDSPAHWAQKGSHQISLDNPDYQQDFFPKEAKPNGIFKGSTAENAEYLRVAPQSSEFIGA
Briefly: Kinase inhibition, Mobility Shift Assay/IMAP, EGFR. The data set is classed as biochemical.
Excerpt: as §1, §2, §3, §4

Another data set concerns melanin. The experiment in a line: Binding capacity of compounds to melanin. The data set is classed as in vitro ADME, cuttlefish (Sepia officinalis). The note with it: cuttlefish (Sepia officinalis), melanin suspension (1 mg/mL); 1 mg/mL melanin in PBS pH 7.4, 2 μM compound, 2 h at 37° C.; read-out: Fu % (percentage of free drug). An excerpt:
Pigmented eye tissues contain melanin in intracellular melanosomes. Drugs bind to melanin to varying degrees, ranging from non-binding to extensive binding. Therefore, melanin binding is an important feature that affects drug delivery and biodistribution in the eye. The binding capacity of the compound to the melanin must be considered in the development of ophthalmic drugs.
Melanin was derived from the melanin of cuttlefish (Sepia officinalis) and was commercially available from Sigma Aldrich (St Louis, MO).
First, prepare 1 mg/mL melanin suspension with PBS (pH 7.4). As a washing step for the matrix, centrifuge the suspended particles for 5 min at 3000 rpm. Resuspend the resulting particles in a fresh PBS buffer, heat to 37° C. over continuous shaking and incubate it for 1 h. Accurately pipette 2 μL of the test stock solution (0.1 mM) into 98 μL of melanin suspension (1 mg/mL) to achieve a final incubation concentration of 2 μM. Similarly, accurately pipette 2 μL of the stock solution (0.1 mM) to 98 μL of PBS buffer (containing 0.1% BSA) as a blank control sample. Incubate the samples in a shaker (80-90 rpm) for 2 h at 37° C. Then, centrifuge the samples at room temperature. Pipette 50 μL of the supernatant and add 50 μL of precipitant (containing an internal standard). After protein precipitation of all the above samples, centrifuge the samples to collect the supernatants, dilute the supernatants with water (if necessary) and inject them for analysis. At the same time, measure the positive controls, including the high-binding compounds Sunitinib and chloroquine and the low-binding compound celecoxib. Establish an LC-MS/MS method for determining compound concentrations, and calibrate the peak area ratio of analyte/internal standard (Analyte/AIS) in the measured sample by the dilution factor to take it as an alternative concentration for the sample for data processing. The binding rate (Fb) of a compound in melanin was calculated as: […]
Ctest was the concentration of the compound in the melanin-incubated sample or the peak area ratio of the test compound to the internal standard. Ccontrol was the concentration of the compound in the blank control sample or the peak area ratio of the test compound to the internal standard. […]

pIC50: −log10 of the molar value. Where only a bound is given, the exact number is not on record here.

Chain of VEGFR2 (P35968 790-1356 limits assumed): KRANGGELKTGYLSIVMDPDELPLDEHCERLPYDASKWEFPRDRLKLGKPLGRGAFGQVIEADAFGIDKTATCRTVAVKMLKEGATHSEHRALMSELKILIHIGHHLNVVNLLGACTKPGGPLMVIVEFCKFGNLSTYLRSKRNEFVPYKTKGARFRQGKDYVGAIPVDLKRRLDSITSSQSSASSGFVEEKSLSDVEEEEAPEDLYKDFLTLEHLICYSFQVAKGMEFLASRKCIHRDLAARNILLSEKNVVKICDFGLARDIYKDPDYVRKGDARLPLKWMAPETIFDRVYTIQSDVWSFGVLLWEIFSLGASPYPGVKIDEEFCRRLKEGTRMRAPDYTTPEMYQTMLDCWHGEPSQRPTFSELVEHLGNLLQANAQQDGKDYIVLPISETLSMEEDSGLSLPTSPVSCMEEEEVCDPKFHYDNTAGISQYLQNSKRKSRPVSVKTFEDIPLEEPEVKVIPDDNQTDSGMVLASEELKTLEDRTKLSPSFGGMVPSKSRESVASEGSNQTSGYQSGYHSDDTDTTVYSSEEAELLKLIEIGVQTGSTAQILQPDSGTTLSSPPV

With `Cn1nc(COc2nsc(NC(=O)NCCCCN3CCCC3)c2C(N)=O)c2ccccc21` [Compound T002, 3-((1-methyl-1H-indazol-3-yl)methoxy)-5-(3-(4-(pyrrolidin-1-yl)butyl)ureido)isothiazole-4-carboxamide], the pIC50 (commonly the IC50 on a negative log10 scale, so that one unit is a factor of ten) on VEGFR2 is 6.89.
Same read-out and setting: as for `NC(=O)c1c(OCc2cccc(OC3CC3)c2)nsc1NC(=O)NCCCCN1CCCC1` [Compound T003, 3-((3-cyclopropoxybenzyl)oxy)-5-(3-(4-(pyrrolidin-1-yl)butyl)ureido)isothiazole-4-carboxamide], the figure is 6.95.
The same measure, in the same setting: to `Cn1ncc2c(COc3nsc(NC(=O)NCCCCN4CCCC4)c3C(N)=O)cccc21` [Compound T004, 3-((1-methyl-1H-indazol-4-yl)methoxy)-5-(3-(4-(pyrrolidin-1-yl)butyl)ureido)isothiazole-4-carboxamide] belongs 6.79; to `Cc1cc(COc2nsc(NC(=O)NCCCCN3CCCC3)c2C(N)=O)nn1C` [Compound T009, 3-((1,5-dimethyl-1H-pyrazol-3-yl)methoxy)-5-(3-(4-(pyrrolidin-1-yl)butyl)ureido)isothiazole-4-carboxamide], 6.66.
For `COc1cccc(COc2nsc(NC(=O)NCCCCN3CCCC3)c2C(N)=O)c1OC` [Compound T032, 3-((2,3-dimethoxybenzyl)oxy)-5-(3-(4-(pyrrolidin-1-yl)butyl)ureido)isothiazole-4-carboxamide], the negative-log IC50 (pIC50) on EGFR is 4.40; on VEGFR2, 7.25.
With `CC(C)(C)OC(=O)N1CCN(CCn2cc(Nc3snc(OCc4c(F)cc(Br)cc4F)c3C(N)=O)cn2)CC1` [Compound T046], on VEGFR2, the negative logarithm of the IC50 (pIC50) is 7.21.
With `CC(C)NC(=O)c1cccc(COc2nsc(NC(=O)NCCCCN3CCCC3)c2C(N)=O)c1` [Compound T057, 3-((3-(isopropylcarbamoyl)benzyl)oxy)-5-(3-(4-(pyrrolidin-1-yl)butyl)ureido)isothiazole-4-carboxamide], the negative-log IC50 (pIC50) is under 4.22 at EGFR and 6.82 at VEGFR2.
Turning to `CCOc1ccc(F)c(COc2nsc(NC(=O)NCCCCN3CCCC3)c2C(N)=O)c1` [Compound T096, 3-((5-ethoxy-2-fluorobenzyl)oxy)-5-(3-(4-(pyrrolidin-1-yl)butyl)ureido)isothiazole-4-carboxamide], in the data set with melanin, the fraction unbound at 2 h, 2 μM was 0.0792.
Still for that read-out and setting: to `NC(=O)c1c(OCc2ccc3c(c2)OCCC3)nsc1NC(=O)NCCCCN1CCCC1` [Compound T097, 3-(chroman-7-ylmethoxy)-5-(4-pyrrolidin-1-ylbutylcarbamoylamino)isothiazole-4-carboxamide] belongs 0.0817; to `NC(=O)c1c(OCc2cc(C(=O)NC3CC3)ccc2F)nsc1NC(=O)NCCCCN1CC[C@H](O)C1` [Compound T099], 0.0884; to `CN1CCN(CCCNC(=O)Nc2snc(OCc3cccc(C(=O)CC4CC4)c3)c2C(N)=O)CC1` [Compound T110, 3-[[3-(2-cyclopropylacetyl)phenyl]methoxy]-5-[3-(4-methylpiperazin-1-yl)propylcarbamoylamino]isothiazole-4-carboxamide], 0.0485.
`COc1cc(F)c(F)c(COc2nsc(NC(=O)NCCCCN3CCCC3)c2C(N)=O)c1F` [Compound T142, 5-(4-pyrrolidin-1-ylbutylcarbamoylamino)-3-[(2,3,6-trifluoro-5-methoxy-phenyl)methoxy]isothiazole-4-carboxamide]: the pIC50 on EGFR is 4.51; on VEGFR2 it was 8.18.
The corresponding values for `NC(=O)c1c(OCc2c(F)ccc(OC(F)F)c2F)nsc1NC(=O)NCCCCN1CCCC1` [Compound T148, 3-[[3-(difluoromethoxy)-2,6-difluoro-phenyl]methoxy]-5-(4-pyrrolidin-1-ylbutylcarbamoylamino)isothiazole-4-carboxamide] are 5.40 and 7.80.
For `NC(=O)c1c(OCc2ccc(F)c(C(=O)NC3CC3)c2)nsc1NC(=O)NCCCCN1CC[C@@H](O)C1` [Compound T150, 3-[[3-(cyclopropylcarbamoyl)-4-fluoro-phenyl]methoxy]-5-[4-[(3R)-3-hydroxypyrrolidin-1-yl]butylcarbamoylamino]isothiazole-4-carboxamide] the same measures were 5.13 and 8.92.
In the case of `NC(=O)c1c(OCc2cc(C(=O)NC3CC3)ccc2F)nsc1NC(=O)NCCCN1CCNCC1` [Compound T153, 3-[[5-(cyclopropylcarbamyl)-2-fluoro-phenyl]methoxy]-5-(3-piperazin-1-ylpropylcarbamylamino)isothiazol-4-formamide], the pIC50 at VEGFR2 was 9.18.
Still for that read-out and setting: to `CC(=O)N1CCN(CCCNC(=O)Nc2snc(OCc3cc(C(=O)NC4CC4)ccc3F)c2C(N)=O)CC1` [Compound T156, 5-[3-(4-acetylpiperazin-1-yl)propylcarbamoylamino]-3-[[5-(cyclopropylcarbamoyl)-2-fluoro-phenyl]methoxy]isothiazole-4-carboxamide] belongs 8.84.
As for `CC(=O)N1CCN(CCCNC(=O)Nc2snc(OCc3ccc(F)c(C(=O)NC4CC4)c3)c2C(N)=O)CC1` [Compound T157, 5-[3-(4-acetylpiperazin-1-yl)propylcarbamoylamino]-3-[[3-(cyclopropylcarbamoyl)-4-fluoro-phenyl]methoxy]isothiazole-4-carboxamide], the results for the negative logarithm of the IC50 (pIC50) on EGFR and on VEGFR2 were 4.82 and 8.60, respectively.
The corresponding values for `NC(=O)c1c(OCc2cc(C(=O)NC3CC3)ccc2F)nsc1N` [Compound T159, 5-amino-3-[[5-(cyclopropylcarbamoyl)-2-fluoro-phenyl]methoxy]isothiazole-4-carboxamide] are 5.06 and 7.38.
The corresponding values for `CCN1CCN(CCCNC(=O)Nc2snc(OCc3cc(C(=O)NC4CC4)ccc3F)c2C(N)=O)CC1` [Compound T163, 3-[[5-(cyclopropylcarbamoyl)-2-fluoro-phenyl]methoxy]-5-[3-(4-ethylpiperazin-1-yl)propylcarbamoylamino]isothiazole-4-carboxamide] are 4.95 and 9.49.
For `CCN1CCN(CCCNC(=O)Nc2snc(OCc3ccc(F)c(C(=O)NC4CC4)c3)c2C(N)=O)CC1` [Compound T164, 3-[[3-(cyclopropylcarbamoyl)-4-fluoro-phenyl]methoxy]-5-[3-(4-ethylpiperazin-1-yl)propylcarbamoylamino]isothiazole-4-carboxamide] the same measures were 4.91 and 8.90.
Take `NC(=O)c1c(OCc2ccc(F)c(C(=O)NC3CC3)c2)nsc1NC(=O)NCCCN1CCN(C2CC2)CC1` [Compound T165, 3-[[3-(cyclopropylcarbamoyl)-4-fluoro-phenyl]methoxy]-5-[3-(4-cyclopropylpiperazin-1-yl)propylcarbamoylamino]isothiazole-4-carboxamide]: the values for the pIC50 on EGFR and at VEGFR2 were 4.50 and 8.84, respectively.
As to `NCCCNC(=O)Nc1snc(OCc2cc(C(=O)NC3CC3)ccc2F)c1C(N)=O` [Compound T167, 5-(3-aminopropylcarbamoylamino)-3-[[5-(cyclopropylcarbamoyl)-2-fluoro-phenyl]methoxy]isothiazole-4-carboxamide], at VEGFR2, the negative logarithm of the IC50 (pIC50) is 9.02.
As to `NC(=O)c1ccc(F)c(COc2nsc(NC(=O)NCCCN3CC[C@H](F)C3)c2C(N)=O)c1` [Compound T168, 3-[(5-carbamoyl-2-fluoro-phenyl)methoxy]-5-[3-[(3S)-3-fluoropyrrolidin-1-yl]propylcarbamoylamino]isothiazole-4-carboxamide], at VEGFR2, the negative-log IC50 (pIC50) is 8.07.
In the case of `NC(=O)c1c(OCc2cc(C(=O)NC3CC3)ccc2F)nsc1NC(=O)NCCCO` [Compound T170, 3-[[5-(cyclopropylcarbamoyl)-2-fluoro-phenyl]methoxy]-5-(3-hydroxypropylcarbamoylamino)isothiazole-4-carboxamide], the pIC50 on VEGFR2 was 8.95.
Regarding `CC(C)(C)OC(=O)CCNC(=O)Nc1snc(OCc2cc(C(=O)NC3CC3)ccc2F)c1C(N)=O` [Compound T173, Tert-butyl 3-[[4-carbamoyl-3-[[5-(cyclopropylcarbamoyl)-2-fluoro-phenyl]methoxy]isothiazol-5-yl]carbamoylamino]propanoate], the negative-log IC50 (pIC50) on EGFR is 5.23; on VEGFR2, 8.71.
